Experimental data taken from US8334107B2, “Detection systems utilizing supported lipid bilayers” (priority 2005, dated 2012).

Legend:
[1] = tested on: 80:20 (molar ratio) DMPG and DMPC lipid bilayers on porous silica beads; assay: Suspension study: melittin-induced release of fluorescein dye from DMPG/DMPC coated porous beads; assay type: biochemical; conditions: 220 μM melittin, 25° C., 80:20 DMPG:DMPC
Method: Experimental procedures were similar to the Triton X-100® detergent based analysis. For experiments with α-toxin, three different toxin concentrations: 15, 45 and 250 μg/mL were used at 37° C. and 25° C. Beads coated with EPC were used. In the experiments with melittin, 220 μM melittin was used with beads coated with either 100% EPC, 10:90 (molar ratio) mixture of DMPG and EPC or an 80:20 mixture of DMPG and DMPC. All melittin experiments were conducted at 25° C.
Previous suspension studies on disruption of lipid bilayers have been performed with small unilamellar vesicles where disruption of the lipid bilayer membranes was detected by monitoring the unquenching of a highly concentrated, encapsulated dye. In the present work disruption was monitored via release of fluorescein dye from porous beads, by measuring the increase in fluorescence intensity of the supernatant at 520 nm. Beads were first suspended in Tris buffer containing the disruptor. […] The measured portion was added back to the bead sample to permit continuous monitoring. […]
In view of the results shown in FIG. 5, the effects of melittin on other mixtures of lipids were examined. […] The increase in fluorescence intensity due to the membrane-melittin interaction, which results in the release of dye from porous beads was about 10 fold. […]

[2] = tested on: 80:20 (molar ratio) DMPG and DMPC membrane on biotin containing porous beads; assay: Microfluidic study: detection of membrane interaction by release of reagent (biotin, ostrich quenching-unquenching); assay type: biochemical; conditions: 20 μL of melittin (220 μM), flow ~1.2 μL/min
Method: A microchannel was packed with a segment (about 1 mm) of streptavidin coated beads to which a non saturating amount of fluorescein biotin had been bound. This was followed by a segment (about 1 mm) of blank silica beads and a segment (about 2 mm) of lipid coated porous beads containing biotin. The blank silica beads were served as the spacer to prevent mixing of fluorescein biotin beads with biotin encapsulated beads. Biotin (25 mM) was encapsulated (according to the same procedure for fluorescein) with a 80:20 (molar ratio) mixture of DMPG and DMPC. A […] aliquot of either 10% Triton X-100® detergent or 220 μM melittin was injected to the column. The fluorescein biotin bead segment was irradiated at 488 nm and its fluorescence emission intensity was measured at 520 nm every 10 minutes.
In this study the membrane-toxin interaction was investigated using the microcolumn system by monitoring a bimolecular reaction on downstream beads. […] The unquenching of fluorescence was the signal for the disruption. […] Introduction of free biotin displaced the fluorescein from the cis binding pocket thus unquenching the fluorescence signal. […]
20 μL of melittin (220 μM) was injected to the bead packed microchannel at 18 min. […] The initial fluorescence intensity decrease is again due to photobleaching, resulting from exposure of the fluorescein-biotin segment to the Ar ion laser. […]

[3] = tested on: DMPG bilayer on PPE-coated beads; assay: Microfluidic assay: detection of lipid bilayer disruption by fluorescence superquenching; assay type: biochemical; conditions: injected as 1:1 mixture with 120 μM AQS
Method: The preparation of microcolumns with PPE-coated, silica beads was similar to that of with fluorescein containing beads. A 10 μL aliquot of 120 μM AQS was injected to the column. After a certain period of time, a 10 μL aliquot of 1:1 mixture of 120 μM AQS and 220 μM melittin was injected. During this process, the PPE-coated silica bead segment was irradiated at 488 nm and its fluorescence emission intensity was measured at 520 nm every 10 minutes. This experiment was repeated, while injecting 220 μM melittin first, and then 120 μM AQS.
The feasibility of using superquenching as a method of detecting membrane-toxin interactions in microcolumns was also investigated. The fluorescence intensity of the cationic polyelectrolyte poly(p-phenylene-ethynylene) polymer (PPE) can be super-quenched by the quencher 9,10-anthraquinone-2,6-disulfonic acid (AQS). […] It has been observed in flow cytometric studies that formation of DMPG membranes on PPE-coated beads will quench the PPE fluorescence to some extent. The initial rise in fluorescence intensity was probably due to the unquenching of the PPE, due to the removal of lipid bilayers from PPE-coated beads through melittin interaction, whereas the decrease in fluorescence corresponded to superquenching of PPE by AQS after disruption of DMPG bilayer by melittin. […]

lipid bilayer = assay: Superquenching of fluorescent polymer coated lipid bilayer beads (general statement); assay type: biochemical; conditions: streptolysin O with cholesterol-containing lipids, mellitin with anionic lipids
Text: On the other hand, some test agents may only lead to gaps or smaller interruptions of the lipid bilayer, for example, as a result of insertion of a channel- or pore-forming proteins such as gramicidin and hemolysin. In either case, the result is either complete or partial superquenching of the fluorescent polymer. In general, non-porous beads are used for such quenching assays because the quenchable polymer is preferably coated onto the beads and is not impregnated into the beads.

[4] = tested on: DMPG lipid bilayer on MS-PPE; assay: Disruption of DMPG lipid bilayer on MS-PPE detected by superquenching with AQS, flow cytometry; assay type: biochemical
Method: Lipid bilayers were disrupted by adding Triton X-100® detergent to the bead suspension to a final concentration of 0.25% (w/v).
Bead suspensions of 2.5×10^5 PPE-coated microspheres in 200 μL PBS were analyzed using a FACScan flow cytometer (Becton-Dickinson, Sunnyvale, Calif.) with excitation at 488 nm. Fluorescence signals were acquired on the FL-1 channel (525 nm) using log amplification and analyzed with the CellQuest software.
(§1) Bead suspensions of 2.5×10^5 DMPG-coated MS-PPE in 200 μL of PBS were analyzed using a FACScan flow cytometer (Becton-Dickinson, Sunnyvale, Calif.) with excitation at 488 nm. Fluorescence signals were acquired on FL-1 channel (525 nm) using log amplification and analyzed with the CellQuest software. Kinetic analysis of disruption of supported lipid bilayer by melittin was performed by acquiring real-time data with continuous mixing of samples (10^6 MS-PPE in 800 μl of PBS) using a magnetic stirrer. The raw data were analyzed using IDL Query software developed by Bruce Edwards (Cancer Center, University of New Mexico, Albuquerque, N. Mex.).
Because an anionic lipid was used to form a lipid bilayer around MS-PPE, it was expected that MLT will disrupt the DMPG lipid bilayer by such a detergent-like action. This was tested by adding 10 μM AQS to DMPG-coated MS-PPE followed by treatment with one of the following: Triton X-100® detergent, synthetic MLT (sMLT), or natural MLT (nMLT) and immediately reading the fluorescence by flow cytometry. […] These histograms resemble the ones reported previously for MS-PPE, without a lipid coating, in absence and in presence of AQS.
The kinetics of disruption of supported lipid bilayer by MLT were monitored by measuring real-time changes in fluorescence intensity by flow cytometry (FIG. 19). Suspensions of 10^6 DMPG-coated MS-PPE in 800 μL of PBS were treated with AQS at a final concentration of 10 μM, then with either sMLT, Triton X-100® detergent, or no treatment. […] Treatment with sMLT in the absence of AQS led to an increase in normalized fluorescence (FIG. 19, trace A). This can be attributed to disruption of the lipid bilayer by sMLT, and is consistent with a reversal of the slight quenching of fluorescence caused by the formation of a DMPG lipid bilayer over MS-PPE. Addition of AQS alone to DMPG-coated MS-PPE (FIG. 19, trace C) led to a 20% reduction in fluorescence as reported earlier. Addition of Triton X-100® detergent to DMPG-coated MS-PPE after the addition of AQS (first dip in trace E, FIG. 19) caused immediate decrease in fluorescence to ˜10% of its original value (second dip in trace E, FIG. 19). In contrast, addition of sMLT, after the addition of AQS, (FIG. 19, trace D) led to a gradual reduction of fluorescence intensity to ˜20% of the original value. Although MLT forms dimers at high concentrations (Dempsey, C. E. Biochim. Biophys. Acta 1990, 1031, 143-161), it is monomeric at the concentrations used in this study. On the other hand, Triton X-100® detergent forms micelles at the concentration used in this study.

DMPG supported on MS-PPE = assay: Binding curves of MLT to DMPG supported on MS-PPE (superquenching flow cytometric assay); conditions: flow cytometry, 10 μM AQS
Method: FIGS. 18A-B show binding curves for MLT-disruption of supported lipid bilayer by natural MLT (nMLT; FIG. 18A), and synthetic MLT (sMLT; FIG. 18B). Fluorescence intensity was normalized to that without MLT as determined by flow cytometry. The error bars represent the standard deviation (SD) of the means of normalized histograms obtained for 3 replicates.
as §1
From FIG. 18, the association constant (corresponding to the reciprocal of the point of half saturation) for nMLT and sMLT with DMPG were 5×10^6 M^−1 and 1.7×10^6 M^−1, respectively. […] Lower concentrations of nMLT, in comparison to sMLT, were required to disrupt the DMPG lipid bilayer. This might be attributed to the fact that nMLT contains some phospholipase A2 (PLA2) as a contaminant. […]

[5] = tested on: immobilized anionic DMPG membranes; conditions: surface plasmon resonance; cited from earlier work

Molecule	increase in fluorescence intensity due to the membrane-melittin interaction [1]	increase in fluorescence intensity of fluorescein-biotin segment [2]	change in fluorescence intensity of bead segment [3]	effect on the lipid bilayer (lipid bilayer)	quenching of the MS-PPE after treatment ([4]; 10 μM AQS, sMLT 3.8 μM, nMLT 1.6 μM)	fluorescence intensity, of the original value ([4]; real-time kinetics, added after 10 μM AQS (traces D, E)) [%]	association constant (reciprocal of the point of half saturation) with DMPG (DMPG supported on MS-PPE) [M⁻¹]	association constant [5] [M⁻¹]
CC[C@H](C)[C@H](NC(=O)CN)C(=O)NCC(=O)N[C@@H](C)C(=O)N[C@H](C(=O)N[C@@H](CC(C)C)C(=O)N[C@@H](CCCCN)C(=O)N[C@H](C(=O)N[C@@H](CC(C)C)C(=O)N[C@H](C(=O)N[C@H](C(=O)NCC(=O)N[C@@H](CC(C)C)C(=O)N1CCC[C@H]1C(=O)N[C@@H](C)C(=O)N[C@@H](CC(C)C)C(=O)N[C@H](C(=O)N[C@@H](CO)C(=O)N[C@@H](Cc1c[nH]c2ccccc12)C(=O)N[C@H](C(=O)N[C@@H](CCCCN)C(=O)N[C@@H](CCCNC(=N)N)C(=O)N[C@@H](CCCCN)C(=O)N[C@@H](CCCNC(=N)N)C(=O)N[C@@H](CCC(N)=O)C(=O)N[C@@H](CCC(N)=O)C(N)=O)[C@@H](C)CC)[C@@H](C)CC)[C@@H](C)O)[C@@H](C)O)C(C)C)C(C)C [melittin]	about 10 fold	not as high as that observed for Triton X-100	slight rise in fluorescence intensity followed by a significant decrease	total disruption of the bilayer	–	–	–	–
sMLT: synthetic melittin obtained from Sigma	–	–	–	–	comparable to that occurring on addition of Triton X-100	~20	1.7e+06	2e+06
